Measured values as given in PMC12203311, “Design, synthesis, in silico and in vitro evaluation of pyrrole–indole hybrids as dual tubulin and aromatase inhibitors with potent anticancer activities” (RSC Advances, 2025).

Key:
[1] = tested on: PC-3; experiment: NCI60 five-dose screen; type: cell-based; details: Homo sapiens, PC-3, prostate cancer
[2] = tested on: SF-295; experiment: NCI60 five-dose screen; type: cell-based; details: Homo sapiens, SF-295, CNS cancer
[3] = tested on: LOX IMVI; experiment: NCI60 five-dose screen; type: cell-based; details: Homo sapiens, melanoma
[4] = tested on: CCRF-CEM; experiment: NCI60 five-dose screen; type: cell-based; details: Homo sapiens, leukemia
[5] = tested on: L929 normal mouse fibroblast cell line; experiment: Cytotoxicity MTT assay, L929; type: cell-based; details: 50 µM single concentration
Experimental: T47D (ATCC HTB-133) was purchased from Biomedia (Thailand) Co., LTD. L929 (ATCC CCL-1) was received as a gift from Prof. Tanapat Palaga, Department of Microbiology, Faculty of Science, Chulalongkorn University, Bangkok, Thailand. The cells were cultured in Dulbecco's Modified Eagle's Medium (DMEM; Gibco) supplemented with 10% fetal bovine serum (FBS; HyClone), 100 U mL^−1 penicillin and 100 µg mL^−1 streptomycin (Gibco) at 37 °C with 5% CO2.
The antiproliferative activity was determined by MTT assay. Briefly, the cells were plated into a 96-well microplate at the density of 10 000 cells per well. The cells were allowed to grow overnight before treated with the solutions of compounds in culture medium at the designated concentrations for 48 hours. The medium was then replaced with MTT solution (0.5 mg mL^−1 MTT in culture medium) and incubated for 3 hours. A 100 µL of DMSO was used to dissolve the produced formazan. Absorbance at 570 nm was then measured using a microplate reader (Varioskan™ LUX multimode microplate reader, Thermo Scientific™). Percent viability was calculated relative to the vehicle control (DMSO).

[6] = tested on: UO-31; experiment: NCI60 five-dose screen; type: cell-based; details: Homo sapiens, UO-31, renal cancer
[7] = tested on: NCI-H460; experiment: NCI60 five-dose screen; type: cell-based; details: Homo sapiens, NCI-H460, NSC lung cancer
[8] = tested on: BT-549; experiment: NCI60 five-dose screen; type: cell-based; details: Homo sapiens, BT-549, breast cancer
[9] = tested on: SK-OV-3; experiment: NCI60 five-dose screen; type: cell-based; details: Homo sapiens, SK-OV-3, ovarian cancer
[10] = tested on: SK-MEL-28; experiment: NCI60 five-dose screen; type: cell-based; details: Homo sapiens, SK-MEL-28, melanoma
[11] = tested on: HL-60 (TB); experiment: NCI60 five-dose screen; type: cell-based; details: Homo sapiens, leukemia
[12] = tested on: COLO 205; experiment: NCI60 five-dose screen; type: cell-based, human; details: Homo sapiens
[13] = tested on: HCT-15; experiment: NCI60 five-dose screen; type: cell-based; details: Homo sapiens, HCT-15, colon cancer
[14] = tested on: MDA-MB-435; experiment: NCI60 five-dose screen; type: cell-based, human; details: Homo sapiens; MDA-MB-435, melanoma
[15] = tested on: HOP-62; experiment: NCI60 five-dose screen; type: cell-based; details: Homo sapiens, HOP-62, NSC lung cancer
[16] = tested on: SF-268; experiment: NCI60 five-dose screen; type: cell-based; details: Homo sapiens, SF-268, CNS cancer
[17] = tested on: A549/ATCC; experiment: NCI60 five-dose screen; type: cell-based; details: Homo sapiens, NSC lung cancer
[18] = tested on: CAKI-1; experiment: NCI60 five-dose screen; type: cell-based; details: Homo sapiens, CAKI-1, renal cancer
[19] = tested on: MALME-3M; experiment: NCI60 five-dose screen; type: cell-based; details: Homo sapiens, melanoma
[20] = tested on: UACC-257; experiment: NCI60 five-dose screen; type: cell-based; details: Homo sapiens, UACC-257, melanoma
[21] = tested on: OVCAR-8; experiment: NCI60 five-dose screen; type: cell-based; details: Homo sapiens, OVCAR-8, ovarian cancer
[22] = tested on: RPMI-8226; experiment: NCI60 five-dose screen; type: cell-based; details: Homo sapiens, RPMI-8226, leukemia
[23] = tested on: NCI-H23; experiment: NCI60 five-dose screen; type: cell-based; details: Homo sapiens, NCI-H23, NSC lung cancer
[24] = tested on: 786-0; experiment: NCI60 five-dose screen; type: cell-based; details: Homo sapiens, 786-0, renal cancer
[25] = tested on: RXF 393; experiment: NCI60 five-dose screen; type: cell-based; details: Homo sapiens, RXF 393, renal cancer
[26] = tested on: NCI-H226; experiment: NCI60 five-dose screen; type: cell-based; details: Homo sapiens, NCI-H226, NSC lung cancer
[27] = tested on: A498; experiment: NCI60 five-dose screen; type: cell-based; details: Homo sapiens, A498, renal cancer
[28] = tested on: SN12C; experiment: NCI60 five-dose screen; type: cell-based; details: Homo sapiens, renal cancer
[29] = tested on: MDA-MB-468; experiment: NCI60 five-dose screen; type: cell-based; details: Homo sapiens, MDA-MB-468, breast cancer
[30] = tested on: HOP-92; experiment: NCI60 five-dose screen; type: cell-based; details: Homo sapiens, HOP-92, NSC lung cancer
[31] = read-out: LC50 (the source's name)

How did the GI50 [1] turn out when Cn1cccc1/C=N/NC(=O)c1[nH]c2ccc(Br)cc2c1-c1ccccc1 [Derivative 3d, (E)-5-Bromo-N′-((1-methyl-1H-pyrrol-2-yl)methylene)-3-phenyl-1H-indole-2-carbohydrazide] was run?
The GI50 was 564 nM.

And the CC50 [1, 31]?
The CC50 was over 100000 nM.

And the GI50 [2]?
The GI50 was 321 nM.

And the CC50 [2, 31]?
Its CC50 is over 100000 nM.

What about the GI50 [3] of the same compound?
The GI50 was 494 nM.

And the CC50 [3, 31]?
The CC50 was over 100000 nM.

And the GI50 [4]?
The GI50 was 429 nM.

What about the CC50 [4, 31] of the same compound?
Its CC50 is over 100000 nM.

And the L929 cell survival [5]?
Its L929 cell survival is over 80%.

What about the “L929 toxicity at single concentration” value [5] of the same compound?
The value was “— ^c (No toxicity observed at 50 µM single concentration (>80% cell survival).)”.

And the GI50 [6]?
The GI50 was 330 nM.

What about the CC50 [6, 31] of the same compound?
The CC50 was over 100000 nM.

And the GI50 [7]?
The GI50 was 442 nM.

And the CC50 [7, 31]?
The CC50 was over 100000 nM.

And the GI50 [8]?
Its GI50 is 2810 nM.

What about the CC50 [8, 31] of the same compound?
The CC50 was over 100000 nM.

What about the GI50 [9] of the same compound?
The GI50 was 1610 nM.

And the CC50 [9, 31]?
Its CC50 is over 100000 nM.

What about the GI50 [10] of the same compound?
The GI50 was 4700 nM.

And the CC50 [10, 31]?
Its CC50 is over 100000 nM.

What about the GI50 [11] of the same compound?
Its GI50 is 317 nM.

And the CC50 [11, 31]?
The CC50 was over 100000 nM.

And the CC50 ([12]; COLO 205, COLO 205, colon cancer, read-out: LC50 (the source's name))?
The CC50 was over 100000 nM.

And the GI50 ([12]; COLO 205, colon cancer)?
The GI50 was 366 nM.

And the GI50 [13]?
The GI50 was 228 nM.

And the CC50 [13, 31]?
The CC50 was over 100000 nM.

And the GI50 [14]?
The GI50 was 151 nM.

What about the GI50 [15] of the same compound?
The GI50 was 570 nM.

What about the CC50 [15, 31] of the same compound?
Its CC50 is over 100000 nM.

And the GI50 [16]?
Its GI50 is 547 nM.

And the CC50 [16, 31]?
The CC50 was over 100000 nM.

And the GI50 [17]?
Its GI50 is 649 nM.

And the CC50 [17, 31]?
The CC50 was over 100000 nM.

And the GI50 [18]?
Its GI50 is 255 nM.

And the CC50 [18, 31]?
Its CC50 is over 100000 nM.

And the GI50 [19]?
Its GI50 is 409 nM.

And the CC50 [19, 31]?
The CC50 was over 100000 nM.

And the GI50 [20]?
Its GI50 is 416 nM.

What about the CC50 [20, 31] of the same compound?
Its CC50 is over 100000 nM.

And the GI50 [21]?
The GI50 was 390 nM.

What about the CC50 [21, 31] of the same compound?
The CC50 was over 100000 nM.

What about the GI50 [22] of the same compound?
The GI50 was 610 nM.

What about the CC50 [22, 31] of the same compound?
The CC50 was over 100000 nM.

What about the GI50 [23] of the same compound?
Its GI50 is 447 nM.

What about the CC50 [23, 31] of the same compound?
Its CC50 is over 100000 nM.

What about the GI50 [24] of the same compound?
Its GI50 is 29400 nM.

What about the CC50 [24, 31] of the same compound?
Its CC50 is over 100000 nM.

And the GI50 [25]?
The GI50 was 280 nM.

What about the CC50 [25, 31] of the same compound?
The CC50 was over 100000 nM.

What about the GI50 [26] of the same compound?
Its GI50 is 603 nM.

And the CC50 [26, 31]?
Its CC50 is over 100000 nM.

And the GI50 [27]?
Its GI50 is over 100000 nM.

And the CC50 [27, 31]?
The CC50 was over 100000 nM.

What about the GI50 [28] of the same compound?
Its GI50 is 497 nM.

And the CC50 [28, 31]?
The CC50 was over 100000 nM.

And the GI50 [29]?
Its GI50 is 155 nM.

What about the CC50 [29, 31] of the same compound?
The CC50 was over 100000 nM.

What about the GI50 [30] of the same compound?
The GI50 was 429 nM.

What about the CC50 [30, 31] of the same compound?
Its CC50 is over 100000 nM.
